Reference: patent US10479997B2, “Compositions and methods for diagnosis and treatment of prostate cancer” (NOVARTIS AG, priority 2014, dated 2019)

Key:
[1] = system: PRMT5; details: shRNAs disclosed in U.S. Patent Application No. 62/049,004; cited from earlier work
[2] = target: PRMT5 (Homo sapiens, UniProt O14744); details: substrate E2-F-1; cited from earlier work
[3] = target: T1, PRMT5/MEP50 enzyme complex (Homo sapiens, UniProt O14744); assay: in vitro biochemical assay: PRMT5/MEP50 enzyme complex with SAM and purified AR LBD (with or without ERG ETS domain); details: AR LBD/PRMT5 and AR LBD/PRMT5/ETS reactions
T1 construct: purchased
T1 sequence (O14744 whole entry, the tested form may be a part): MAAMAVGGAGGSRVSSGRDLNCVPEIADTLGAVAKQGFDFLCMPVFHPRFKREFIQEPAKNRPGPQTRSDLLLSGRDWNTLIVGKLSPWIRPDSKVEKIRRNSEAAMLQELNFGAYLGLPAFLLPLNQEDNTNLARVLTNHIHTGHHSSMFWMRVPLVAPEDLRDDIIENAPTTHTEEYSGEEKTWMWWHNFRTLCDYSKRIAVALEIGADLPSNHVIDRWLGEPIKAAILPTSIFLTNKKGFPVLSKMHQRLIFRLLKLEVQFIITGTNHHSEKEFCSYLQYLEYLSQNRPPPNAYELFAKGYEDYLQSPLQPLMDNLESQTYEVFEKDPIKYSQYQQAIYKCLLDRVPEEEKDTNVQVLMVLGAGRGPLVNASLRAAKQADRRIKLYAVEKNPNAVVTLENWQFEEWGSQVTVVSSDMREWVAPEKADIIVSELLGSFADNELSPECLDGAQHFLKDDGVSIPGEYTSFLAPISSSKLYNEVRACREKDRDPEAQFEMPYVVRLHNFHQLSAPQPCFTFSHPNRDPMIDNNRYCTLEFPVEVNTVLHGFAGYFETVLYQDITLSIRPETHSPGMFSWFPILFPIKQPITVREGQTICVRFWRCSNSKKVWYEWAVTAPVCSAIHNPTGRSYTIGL
T1 sequence (Q9BQA1 whole entry partner, the tested form may be a part): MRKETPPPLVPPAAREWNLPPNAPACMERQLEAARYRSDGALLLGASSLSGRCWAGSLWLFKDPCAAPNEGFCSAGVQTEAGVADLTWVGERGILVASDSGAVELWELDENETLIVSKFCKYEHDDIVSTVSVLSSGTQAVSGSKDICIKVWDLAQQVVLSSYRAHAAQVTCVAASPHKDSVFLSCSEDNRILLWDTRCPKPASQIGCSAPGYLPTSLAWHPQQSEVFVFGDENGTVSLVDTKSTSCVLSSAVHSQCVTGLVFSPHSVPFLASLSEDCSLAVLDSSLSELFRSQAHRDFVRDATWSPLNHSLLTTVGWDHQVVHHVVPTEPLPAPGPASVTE
Experimental: To test whether ERG is a substrate of PRMT5, we used 22Rv1 cells to express and immunoprecipitate ERG in the presence and absence of PRMT5. Using a recently generated antibody specific for symmetric dimethyl arginine modification, we verified ERG arginine methylation levels and only observed a faint band which was not altered following PRMT5 knockdown (data not shown). To confirm these findings, we performed in vitro biochemical assays in which we incubated increasing amounts of commercial PRMT5/MEP50 enzyme complex with the methyl donor S-Adenosyl-Methionine (SAM) and either the pointed (PNT) domain or ETS domain of ERG as possible substrates of PRMT5. As a measure of PRMT5 catalytic activity and usage of the methyl donor SAM for substrate methylation, we evaluated and quantified by mass spectrometry the amount of S-Adenosyl-Homocysteine (SAH) produced (data not shown). […] To investigate whether the ligand binding domain (LBD) of AR is a direct substrate of PRMT5, we performed a series of in vitro biochemical assays in which we incubated the PRMT5/MEP50 enzyme complex with the methyl donor S-Adenosyl-Methionine (SAM) and purified AR LBD. […]

Chain of PRMT5 (Homo sapiens, UniProt O14744) (O14744 whole entry, the tested form may be a part): as the sequence (O14744 whole entry, the tested form may be a part) above
Chain of PRMT5 (Homo sapiens, UniProt O14744) (Q9BQA1 whole entry partner, the tested form may be a part): as the sequence (Q9BQA1 whole entry partner, the tested form may be a part) above

| Molecule | effectiveness of shRNA to PRMT5 [1] | other results |
| --- | --- | --- |
| sh4736: PRMT5 shRNA, target sequence GCGGATAAAGCTGTATGCTGT (SEQ ID NO: 11) (the letters are possibly those of the target site) | most effective | – |
| Nc1ncnc2c1ncn2[C@@H]1O[C@H](C[C@@H](N)CC[C@H](N)C(=O)O)C(O)C1O (stereo in doubt) [Sinefungin, 5′-Deoxy-5′-(1,4-diamino-4-carboxybutyl)adenosine] | – | inhibition of PRMT5 activity [2]: inhibits PRMT5 activity |
| sh4737: PRMT5 shRNA, target sequence GCCAAGTGACCGTAGTCTCAT (SEQ ID NO: 15) | most effective | – |
| O=C(Nc1ccc2c(O)cc(S(=O)(=O)O)cc2c1)Nc1ccc2c(O)cc(S(=O)(=O)O)cc2c1 [AMI-1] | – | AR mono-methylation levels ([3]; arginine mono-methyl antibody): completely blocked; SAH production ([3]; measured by mass spectrometry): completely blocked |
| sh4738: PRMT5 shRNA, target sequence GCCATCCCAACAGAGATCCTA (SEQ ID NO: 8) (the letters are possibly those of the target site) | also effective | – |
